# Data reported in PMC7377239, “Cardiovascular Effects of Polychlorinated Biphenyls and Their Major Metabolites” (Environmental Health Perspectives, 2020).
# Like-named read-outs stand apart in the source and are kept apart here.
# Assays:
# HUVECs = assay: High-content imaging cytotoxicity in HUVECs, 24 h; assay type: cell-based, human; conditions: Homo sapiens, HUVEC, 24 h, HUVECs; for viability at 0.01 µM / activity at 0.01 µM: concentration 0.01 µM; for viability at 0.01 µM / activity at 0.01 µM / viability at 0.1 µM / activity at 0.1 µM / viability at 1 µM / activity at 1 µM / viability at 10 µM / activity at 10 µM / viability at 100 µM / activity at 100 µM: 0.00 µM = 100.00; for viability at 0.1 µM / activity at 0.1 µM: concentration 0.10 µM; for viability at 1 µM / activity at 1 µM: concentration 1.00 µM; for viability at 10 µM / activity at 10 µM: concentration 10.00 µM; for viability at 100 µM / activity at 100 µM: concentration 100.00 µM; for minimal effective concentration: MAX 100.00
# In short: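 HUVECs (passages 1–5) were plated at 750 cells/well without fibronectin, grown to a monolayer (3–5 d) and exposed to compounds for 24 h at 37°C, 5% CO2. Hoechst 33342, MitoTracker Orange and calcein AM staining was imaged at 10×; readouts were normalized to 0.5% DMSO vehicle and fit to a four-parameter logistic model.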
# [1] = tested on: iCell endothelial cells (human iPSC-derived ECs); assay: High-content imaging cytotoxicity in iCell endothelial cells, 24 h; assay type: cell-based; conditions: Homo sapiens, Endothelial cell, iPSC-EC; for viability at 0.1 µM / activity at 0.1 µM: 0.10 µM; for minimal effective concentration: 100.00 = highest concentration tested
# In short: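 Human iPSC-derived endothelial cells (passages 1–5) were grown to a fibronectin-coated monolayer, then exposed 24 h at 37 °C with 0.5% DMSO vehicle. Staining was Hoechst 33342, MitoTracker Orange and calcein AM, read by high-content imaging. Point of departure came from 4-parameter logistic fits, with a 1-SD vehicle cutoff and 100 µM as the top concentration.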
# [2] = 24 hr, read-out: huvec.cyto.24hr
# [3] = 24 hr, read-out: huvec.mito.24hr
# [4] = 24 hr, read-out: huvec.mitoint.24hr
# [5] = 24 hr, read-out: huvec.nma.24hr
# [6] = 24 hrs, read-out: huvec.tc.24hrs
# [7] = 0.00 µM = 100.00, read-out: endo.cyto.24hr
# [8] = 0.00 µM = 100.00, read-out: endo.mito.24hr
# [9] = 0.00 µM = 100.00, read-out: endo.mitoint.24hr
# [10] = 0.00 µM = 100.00, read-out: endo.nma.24hr
# [11] = 0.00 µM = 100.00, read-out: endo.tc.24hrs
smiles,measurement,setting,value
Clc1cc(Cl)c(-c2cc(Cl)c(Cl)cc2Cl)cc1Cl [PCB153],viability at 0.01 µM,HUVECs; [2],89.7%
same,activity at 0.01 µM,HUVECs; [3],88.6%
same,activity at 0.01 µM,HUVECs; [4],89.5%
same,activity at 0.01 µM,HUVECs; [5],98.4%
same,viability at 0.1 µM,HUVECs; [2],85%
same,activity at 0.1 µM,HUVECs; [3],83.8%
same,activity at 0.1 µM,HUVECs; [4],93%
same,activity at 0.1 µM,HUVECs; [5],97%
same,viability at 1 µM,HUVECs; [2],94.2%
same,activity at 1 µM,HUVECs; [3],93.9%
same,activity at 1 µM,HUVECs; [4],92.2%
same,activity at 1 µM,HUVECs; [5],97.3%
same,viability at 10 µM,HUVECs; [2],66.9%
same,activity at 10 µM,HUVECs; [3],53.7%
same,activity at 10 µM,HUVECs; [4],45.8%
same,activity at 10 µM,HUVECs; [5],66.9%
same,viability at 100 µM,HUVECs; [2],66.2%
same,activity at 100 µM,HUVECs; [3],34.5%
same,activity at 100 µM,HUVECs; [4],13.2%
same,activity at 100 µM,HUVECs; [5],65.8%
same,minimal effective concentration,"HUVECs; 24 hr, read-out: huvec.cyto.24hr POD",0.0171 µM
same,minimal effective concentration,"HUVECs; 24 hr, read-out: huvec.mito.24hr POD",0.75 µM
same,minimal effective concentration,"HUVECs; 24 hr, read-out: huvec.mitoint.24hr POD",0.83 µM
same,minimal effective concentration,"HUVECs; 24 hr, read-out: huvec.nma.24hr POD",1.01 µM
same,viability at 0.01 µM,HUVECs; [6],89.7%
same,viability at 0.1 µM,HUVECs; [6],85%
same,viability at 1 µM,HUVECs; [6],94.2%
same,viability at 10 µM,HUVECs; [6],67%
same,viability at 100 µM,HUVECs; [6],66.2%
same,minimal effective concentration,"HUVECs; 24 hrs, read-out: huvec.tc.24hrs POD",0.0171 µM
same,viability at 0.01 µM,[1]; [7],97.6%
same,activity at 0.01 µM,[1]; [8],97.9%
same,activity at 0.01 µM,[1]; [9],86%
same,activity at 0.01 µM,[1]; [10],102%
same,viability at 0.01 µM,[1]; [11],97.6%
same,viability at 0.1 µM,[1]; [7],97.8%
same,activity at 0.1 µM,[1]; [8],98.2%
same,activity at 0.1 µM,[1]; [9],85.5%
same,activity at 0.1 µM,[1]; [10],101%
same,viability at 0.1 µM,[1]; [11],97.8%
same,viability at 1 µM,[1]; [7],103%
same,activity at 1 µM,[1]; [8],103%
same,activity at 1 µM,[1]; [9],84.3%
same,activity at 1 µM,[1]; [10],100%
same,viability at 1 µM,[1]; [11],103%
same,viability at 10 µM,[1]; [7],109%
same,activity at 10 µM,[1]; [8],110%
same,activity at 10 µM,[1]; [9],80.5%
same,activity at 10 µM,[1]; [10],98%
same,viability at 10 µM,[1]; [11],109%
same,viability at 100 µM,[1]; [7],45.5%
same,activity at 100 µM,[1]; [8],42%
same,activity at 100 µM,[1]; [9],57.6%
same,activity at 100 µM,[1]; [10],108%
same,viability at 100 µM,[1]; [11],46.4%
same,minimal effective concentration,[1]; read-out: endo.cyto.24hr POD,18.6 µM
same,minimal effective concentration,[1]; read-out: endo.mito.24hr POD,18.6 µM
same,minimal effective concentration,[1]; read-out: endo.mitoint.24hr POD,0.07 µM
same,minimal effective concentration,[1]; read-out: endo.nma.24hr POD,62.5 µM
same,minimal effective concentration,[1]; read-out: endo.tc.24hrs POD,49.2 µM
